# Measurements as given in US20080234173A1, “PRESERVATIVE COMPOSITIONS” (TAKASAGO INTERNATIONAL CORPORATION, priority 2007, published 2008).
# Entries after “also recorded” stand apart in the source; their conditions may differ.
# System: Pseudomonas aeruginosa ATCC 15442
# Assay: Anti-Bacterial Test Method: log reduction of bacterial colonies after 3 days exposure in water
# Type: cell-based
# Protocol: Materials were dissolved in ethanol (or deionized water in the case of water soluble preservatives) to a concentration of 100 mg/ml. 30 μl of this solution added to 3 ml deionized water gave a final concentration of 0.1%. (If necessary, solutions are sonicated for 15 minutes and allowed to equilibrate back to ambient temperature.) Bacterial cultures were added to this solution, mixed on a vortex mixer and a dock started. After 3 days, an aliquot is sampled and added to a D/E (Dey/Engley) neutralization broth (marketed by Becton and Dickinson Cγ) and plated onto solid media. Bacterial colonies are counted after overnight incubation. The selected indicator microorganism was Pseudomonas aeruginosa ATCC 15442.
# All results are quoted as the reduction in activity expressed as a logarithm to the base 10 measured after 3 days incubation and compared with the inocculum unless otherwise noted.
# All percentages are quoted as weight per unit volume (e.g. g/ml) unless indicated otherwise.
structure (smiles),measurement,setting,value
OCc1ccccc1 [Benzyl alcohol],Log Reduction after 3 days,0.025% Benzyl alcohol alone,0.2 log
"Cl/C=C\C[N+]12CN3CN(CN(C3)C1)C2.[Cl-] [Dowicil 200, cis-1-3-chloroallyl-3,5,7-triaza-1-azoniaadamantane chloride]","log reduction, compared with the ethanol solvent control",0.05% Dowicil 200 alone,1.3 log
same,log reduction after 3 days vs Inocculum,0.05% Dowicil (line of Test Example 14 without fragrance),0.7 log
CCOC(=O)c1ccccc1C(=O)OCC [diethyl phthalate],effect of addition of diethyl phthalate on antibacterial / preservative efficacy,0.1% or 0.2% diethyl phthalate added to fragrance ingredient + preservative mixture,detrimental to antibacterial efficacy; also recorded: detrimental to preservative efficacy
"OCCOc1ccccc1 [phenoxyethanol, 2-Phenoxyethanol]","log reduction, compared with the ethanol solvent control, after 3 days",0.1% phenoxyethanol alone,0.4 log
